Assay [1] deals with T1, human Kv1.3 voltage-gated K+ channel (Homo sapiens, UniProt P22001).
T1 construct: host or cells: CHO-DUKX
The assay can be described thus: cell-based. The settings on record: inhibition of thallium flux, CHO-DUKX cells with human Kv1.3; read-out: IC50.

The target in a further assay is T2, Kv1.3 (Homo sapiens, UniProt P22001).
T2 construct: expressed in transfected cells; host or cells: Chinese Hamster Ovary (CHO)
The assay can be described thus: cell-based. The following applies: CHO cells, whole-cell patch clamp; read-out: Potency IC50 (nM) Kv1.3.

A further assay concerns the target Rat whole blood (Rattus norvegicus, UniProt P15384).
The mark [2] stands for this setting: inhibition of IL-17A release, thapsigargin, 24 Hr, at least 2 replicates.

Read-outs that look alike come from different tables or passages of the source. Bridge positions count the residues as written; N and C are the ends. Square brackets hold non-standard residues; d marks the D form. Peptide text beside a SMILES is read from it. Aad = N[C@@H](CCCC(=O)O)C(=O)O; Nle = CCCC[C@H](N)C(=O)O

T2 sequence (P22001 whole entry): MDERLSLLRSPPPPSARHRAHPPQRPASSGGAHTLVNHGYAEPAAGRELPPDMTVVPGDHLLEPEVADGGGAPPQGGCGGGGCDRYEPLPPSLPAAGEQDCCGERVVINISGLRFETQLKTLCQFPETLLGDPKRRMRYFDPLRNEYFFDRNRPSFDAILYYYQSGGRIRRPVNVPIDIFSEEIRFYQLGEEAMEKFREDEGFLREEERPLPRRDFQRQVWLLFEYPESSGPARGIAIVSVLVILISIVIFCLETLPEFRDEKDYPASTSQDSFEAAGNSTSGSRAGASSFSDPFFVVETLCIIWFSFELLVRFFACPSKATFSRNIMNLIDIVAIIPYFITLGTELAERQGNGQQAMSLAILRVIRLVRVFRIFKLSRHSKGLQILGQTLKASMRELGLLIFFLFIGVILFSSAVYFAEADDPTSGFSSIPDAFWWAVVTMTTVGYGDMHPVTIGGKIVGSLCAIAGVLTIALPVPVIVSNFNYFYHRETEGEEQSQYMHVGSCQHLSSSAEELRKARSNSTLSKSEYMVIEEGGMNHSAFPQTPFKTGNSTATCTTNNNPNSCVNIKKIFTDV
T1 sequence (P22001 whole entry): as above
Sequence of Rat whole blood (P15384 whole entry): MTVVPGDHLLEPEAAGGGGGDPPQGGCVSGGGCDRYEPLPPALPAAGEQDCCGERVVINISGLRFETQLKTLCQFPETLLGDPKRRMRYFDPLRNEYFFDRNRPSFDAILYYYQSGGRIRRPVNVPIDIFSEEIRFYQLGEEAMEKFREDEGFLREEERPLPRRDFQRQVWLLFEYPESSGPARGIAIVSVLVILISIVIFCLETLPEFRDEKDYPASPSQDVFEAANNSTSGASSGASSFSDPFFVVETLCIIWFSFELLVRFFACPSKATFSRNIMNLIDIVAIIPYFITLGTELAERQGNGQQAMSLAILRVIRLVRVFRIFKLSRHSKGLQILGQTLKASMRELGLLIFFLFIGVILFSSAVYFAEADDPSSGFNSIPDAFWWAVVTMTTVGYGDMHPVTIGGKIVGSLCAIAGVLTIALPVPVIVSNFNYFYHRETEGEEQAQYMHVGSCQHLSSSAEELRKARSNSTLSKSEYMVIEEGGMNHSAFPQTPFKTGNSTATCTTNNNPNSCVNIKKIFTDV

In the case of `CCCC[C@@H]1NC(=O)[C@@H]2CSSC[C@H](NC(=O)[C@H](CCCNC(=N)N)NC(=O)[C@H](CCCC)NC(=O)[C@H](CC(=O)O)NC(=O)[C@H](CCCC)NC(=O)[C@@H](N)Cc3ccc(O)cc3)C(=O)N[C@@H](CO)C(=O)N[C@@H](C)C(=O)N[C@@H](CO)C(=O)N[C@@H](C(C)C)C(=O)N[C@@H](CCC(=O)O)C(=O)N[C@H]3CSSC[C@H](NC(=O)[C@H](CCCCN)NC(=O)[C@H](CCCCN)NC(=O)[C@H](CC(N)=O)NC1=O)C(=O)N[C@@H](CCCCN)C(=O)N[C@H](C(=O)N[C@@H](Cc1ccc(O)cc1)C(=O)N1CCC[C@H]1C(=O)N[C@@H](CCCNC(=N)N)C(N)=O)CSSC[C@H](NC(=O)[C@H](CCCCN)NC(=O)[C@H](CCC(N)=O)NC(=O)[C@H](CCCCN)NC3=O)C(=O)N[C@@H](CC(C)C)C(=O)N[C@@H](CCCCN)C(=O)N[C@@H](C)C(=O)N[C@@H]([C@@H](C)CC)C(=O)NCC(=O)N[C@@H](CO)C(=O)N[C@@H]([C@@H](C)CC)C(=O)N[C@@H](Cc1ccccc1)C(=O)NCC(=O)N[C@@H](CCCCN)C(=O)N2` [Compound 65] (H-Y[Nle]D[Nle]RCSASVECKQKCLKAIGSIFGKC[Nle]NKKCKCYPR-NH2; disulfide 6-27, 12-32, 16-34), the results for the half-inhibitory concentration (IC50) (in assay [1]; at Kv1.3) were 0.12 nM and 0.14 nM, respectively.
The corresponding values for `CCCC[C@H](NC(=O)[C@H](CC(=O)O)NC(=O)[C@H](CCCC)NC(=O)[C@@H](N)CC(N)=O)C(=O)N[C@@H](CCCNC(=N)N)C(=O)N[C@H]1CSSC[C@@H]2NC(=O)[C@H](CCCCN)NC(=O)CNC(=O)[C@H](Cc3ccccc3)NC(=O)[C@H]([C@@H](C)CC)NC(=O)[C@H](CO)NC(=O)CNC(=O)[C@H]([C@@H](C)CC)NC(=O)[C@H](C)NC(=O)[C@H](CCCCN)NC(=O)[C@H](CC(C)C)NC(=O)[C@@H]3CSSC[C@@H](C(=O)N[C@@H](Cc4ccc(O)cc4)C(=O)N4CCC[C@H]4C(=O)N[C@@H](CCCNC(=N)N)C(N)=O)NC(=O)[C@H](CCCCN)NC(=O)[C@H](CSSC[C@H](NC(=O)[C@H](CCC(=O)O)NC(=O)[C@H](C(C)C)NC(=O)[C@H](CO)NC(=O)[C@H](C)NC(=O)[C@H](CO)NC1=O)C(=O)N[C@@H](CCCCN)C(=O)N[C@@H](CCC(N)=O)C(=O)N[C@@H](CCCCN)C(=O)N3)NC(=O)[C@H](CCCCN)NC(=O)[C@H](CCCCN)NC(=O)[C@H](CC(N)=O)NC(=O)[C@H](CCSC)NC2=O` [Compound 39] (H-N[Nle]D[Nle]RCSASVECKQKCLKAIGSIFGKCMNKKCKCYPR-NH2; disulfide 6-27, 12-32, 16-34) are 0.11 nM and 0.15 nM.
For the compound `CCCC[C@H](NC(=O)[C@H](CC(=O)O)NC(=O)[C@H](CCCC)NC(=O)[C@@H](N)CO)C(=O)N[C@@H](CCCNC(=N)N)C(=O)N[C@H]1CSSC[C@@H]2NC(=O)[C@H](CCCCN)NC(=O)CNC(=O)[C@H](Cc3ccccc3)NC(=O)[C@H]([C@@H](C)CC)NC(=O)[C@H](CO)NC(=O)CNC(=O)[C@H]([C@@H](C)CC)NC(=O)[C@H](C)NC(=O)[C@H](C)NC(=O)[C@H](CC(C)C)NC(=O)[C@@H]3CSSC[C@@H](C(=O)N[C@@H](Cc4ccc(O)cc4)C(=O)N4CCC[C@H]4C(=O)N[C@@H](CCCNC(=N)N)C(N)=O)NC(=O)[C@H](CCCCN)NC(=O)[C@H](CSSC[C@H](NC(=O)[C@H](CCC(=O)O)NC(=O)[C@H](C(C)C)NC(=O)[C@H](CO)NC(=O)[C@H](C)NC(=O)[C@H](CO)NC1=O)C(=O)N[C@@H](C)C(=O)N[C@@H](CCC(N)=O)C(=O)N[C@@H](CCCCN)C(=O)N3)NC(=O)[C@H](CCCCN)NC(=O)[C@H](CCCCN)NC(=O)[C@H](CC(N)=O)NC(=O)[C@H](CCSC)NC2=O` [Compound 80] (H-S[Nle]D[Nle]RCSASVECAQKCLAAIGSIFGKCMNKKCKCYPR-NH2; disulfide 6-27, 12-32, 16-34), the IC50 worked out at 0.15 nM in assay [1] and 0.16 nM at Kv1.3.
Take `CCCC[C@@H]1NC(=O)[C@@H]2CSSC[C@H](NC(=O)[C@H](CCCNC(=N)N)NC(=O)[C@H](CCCC)NC(=O)[C@H](CC(=O)O)NC(=O)[C@H](CCCC)NC(=O)[C@@H](N)CO)C(=O)N[C@@H](CO)C(=O)N[C@@H](C)C(=O)N[C@@H](CO)C(=O)N[C@@H](C(C)C)C(=O)N[C@@H](CCC(=O)O)C(=O)N[C@H]3CSSC[C@H](NC(=O)[C@H](CCCCN)NC(=O)[C@H](CCCCN)NC(=O)[C@H](CC(N)=O)NC1=O)C(=O)N[C@@H](CCCCN)C(=O)N[C@H](C(=O)N[C@@H](Cc1ccc(O)cc1)C(=O)N1CCC[C@H]1C(=O)N[C@@H](CCCNC(=N)N)C(=O)O)CSSC[C@H](NC(=O)[C@H](CCCCN)NC(=O)[C@H](CCC(N)=O)NC(=O)[C@H](CCCCN)NC3=O)C(=O)N[C@@H](CC(C)C)C(=O)N[C@@H](CCCCN)C(=O)N[C@@H](C)C(=O)N[C@@H]([C@@H](C)CC)C(=O)NCC(=O)N[C@@H](CO)C(=O)N[C@@H]([C@@H](C)CC)C(=O)N[C@@H](Cc1ccccc1)C(=O)NCC(=O)N[C@@H](CCCCN)C(=O)N2` [Compound 82] (H-S[Nle]D[Nle]RCSASVECKQKCLKAIGSIFGKC[Nle]NKKCKCYPR-OH; disulfide 6-27, 12-32, 16-34): the figures for the IC50 (at Rat whole blood; at Rat whole blood (setting [2]); in assay [1]) were not above 1 nM, 0.52 nM and 0.49 nM, respectively.
`CCCC[C@@H]1NC(=O)[C@@H]2CSSC[C@H](NC(=O)[C@H](CCCNC(=N)N)NC(=O)[C@H](CCCC)NC(=O)[C@H](CC(=O)O)NC(=O)[C@H](CCCC)NC(=O)[C@@H](N)CC(N)=O)C(=O)N[C@@H](CO)C(=O)N[C@@H](C)C(=O)N[C@@H](CO)C(=O)N[C@@H](C(C)C)C(=O)N[C@@H](CCC(=O)O)C(=O)N[C@H]3CSSC[C@H](NC(=O)[C@H](CCCCN)NC(=O)[C@H](CCCCN)NC(=O)[C@H](CC(N)=O)NC1=O)C(=O)N[C@@H](CCCCN)C(=O)N[C@H](C(=O)N[C@@H](Cc1ccc(O)cc1)C(=O)N1CCC[C@H]1C(=O)N[C@@H](CCCNC(=N)N)C(N)=O)CSSC[C@H](NC(=O)[C@H](CCCCN)NC(=O)[C@H](CCC(N)=O)NC(=O)[C@H](CCC(=O)O)NC3=O)C(=O)N[C@@H](CC(C)C)C(=O)N[C@@H](CCCCN)C(=O)N[C@@H](C)C(=O)N[C@@H]([C@@H](C)CC)C(=O)NCC(=O)N[C@@H](CO)C(=O)N[C@@H]([C@@H](C)CC)C(=O)N[C@@H](Cc1ccccc1)C(=O)NCC(=O)N[C@@H](CCCCN)C(=O)N2` [Compound 43] (H-N[Nle]D[Nle]RCSASVECEQKCLKAIGSIFGKC[Nle]NKKCKCYPR-NH2; disulfide 6-27, 12-32, 16-34): the half-inhibitory concentration (IC50) is not above 1 nM against Rat whole blood, 0.99 nM against Rat whole blood (setting [2]) and 0.5 nM in assay [1].
Take `CCCC[C@@H]1NC(=O)[C@@H]2CSSC[C@H](NC(=O)[C@H](CCCNC(=N)N)NC(=O)[C@@H](N)CC(C)C)C(=O)N[C@@H](CO)C(=O)N[C@@H](C)C(=O)N[C@@H](CO)C(=O)N[C@@H](C(C)C)C(=O)N[C@@H](CCC(=O)O)C(=O)N[C@H]3CSSC[C@H](NC(=O)[C@H](CCCCN)NC(=O)[C@H](CCCCN)NC(=O)[C@H](CC(N)=O)NC1=O)C(=O)N[C@@H](CCCCN)C(=O)N[C@H](C(=O)N[C@@H](Cc1ccc(O)cc1)C(=O)N1CCC[C@H]1C(=O)N[C@@H](CCCNC(=N)N)C(=O)O)CSSC[C@H](NC(=O)[C@H](CCCCN)NC(=O)[C@H](CCC(N)=O)NC(=O)[C@H](CCCCN)NC3=O)C(=O)N[C@@H](CC(C)C)C(=O)N[C@@H](CCCCN)C(=O)N[C@@H](C)C(=O)N[C@@H]([C@@H](C)CC)C(=O)NCC(=O)N[C@@H](CO)C(=O)N[C@@H]([C@@H](C)CC)C(=O)N[C@@H](Cc1ccccc1)C(=O)NCC(=O)N[C@@H](CCCCN)C(=O)N2` [Compound 114] (H-LRCSASVECKQKCLKAIGSIFGKC[Nle]NKKCKCYPR-OH; disulfide 3-24, 9-29, 13-31): the half-maximal inhibitory concentration (IC50) amounted to 2.1 nM against Rat whole blood (setting [2]) and 0.39 nM in assay [1].
The corresponding values for `CCCC[C@@H]1NC(=O)[C@@H]2CSSC[C@H](NC(=O)[C@H](CCCNC(=N)N)NC(=O)[C@H](CCCC)NC(=O)[C@H](CC(=O)O)NC(=O)[C@H](CCCC)NC(=O)[C@@H](N)CC(N)=O)C(=O)N[C@@H](CO)C(=O)N[C@@H](C)C(=O)N[C@@H](CO)C(=O)N[C@@H](C(C)C)C(=O)N[C@@H](CCC(=O)O)C(=O)N[C@H]3CSSC[C@H](NC(=O)[C@H](CCCCN)NC(=O)[C@H](CCCCN)NC(=O)[C@H](CC(N)=O)NC1=O)C(=O)N[C@@H](CCCCN)C(=O)N[C@H](C(=O)N[C@@H](Cc1ccc(O)cc1)C(=O)N1CCC[C@H]1C(=O)N[C@@H](CCCNC(=N)N)C(N)=O)CSSC[C@H](NC(=O)[C@H](CCCCN)NC(=O)[C@H](CCC(N)=O)NC(=O)[C@H](CCC(N)=O)NC3=O)C(=O)N[C@@H](CC(C)C)C(=O)N[C@@H](CCCCN)C(=O)N[C@@H](C)C(=O)N[C@@H]([C@@H](C)CC)C(=O)NCC(=O)N[C@@H](CO)C(=O)N[C@@H]([C@@H](C)CC)C(=O)N[C@@H](Cc1ccccc1)C(=O)NCC(=O)N[C@@H](CCCCN)C(=O)N2` [Compound 44] (H-N[Nle]D[Nle]RCSASVECQQKCLKAIGSIFGKC[Nle]NKKCKCYPR-NH2; disulfide 6-27, 12-32, 16-34) are 1.1 nM and 0.13 nM.
As for `CCCC[C@H](NC(=O)[C@H](CC(=O)O)NC(=O)[C@H](CCCC)NC(=O)[C@@H](N)CO)C(=O)N[C@@H](CCCNC(=N)N)C(=O)N[C@H]1CSSC[C@@H]2NC(=O)[C@H](CCCCN)NC(=O)CNC(=O)[C@H](Cc3ccccc3)NC(=O)[C@H]([C@@H](C)CC)NC(=O)[C@H](CO)NC(=O)CNC(=O)[C@H]([C@@H](C)CC)NC(=O)[C@H](C)NC(=O)[C@H](CCCCN)NC(=O)[C@H](CC(C)C)NC(=O)[C@@H]3CSSC[C@@H](C(=O)N[C@@H](Cc4ccc(O)cc4)C(=O)N4CCC[C@H]4C(=O)N[C@@H](CCCNC(=N)N)C(N)=O)NC(=O)[C@H](CCCCN)NC(=O)[C@H](CSSC[C@H](NC(=O)[C@H](CCC(=O)O)NC(=O)[C@H](C(C)C)NC(=O)[C@H](CO)NC(=O)[C@H](C)NC(=O)[C@H](CO)NC1=O)C(=O)N[C@@H](CCCCN)C(=O)N[C@@H](CCCC(=O)O)C(=O)N[C@@H](CCCCN)C(=O)N3)NC(=O)[C@H](CCCCN)NC(=O)[C@H](CCCCN)NC(=O)[C@H](CC(N)=O)NC(=O)[C@H](CCSC)NC2=O` [Compound 73] (H-S[Nle]D[Nle]RCSASVECK[Aad]KCLKAIGSIFGKCMNKKCKCYPR-NH2; disulfide 6-27, 12-32, 16-34), the IC50 at Rat whole blood was not above 1 nM; on Rat whole blood (setting [2]), 0.52 nM; in assay [1] it was 0.11 nM.

The term IC50 denotes the concentration needed to halve the response being measured.

The record behind these values is US11780893B2, “Kv1.3 blockers” (Zealand Pharma A/S, priority 2019, dated 2023).
